Patent US20040162295A1, “Pharmaceutical compound” (priority 2001, published 2004)

Experiments:
[1] = Stability study on crystalline forms (temperature, humidity, light); assay type: physicochemical; conditions: for Morphological stability: high relative humidity (above 70%)
Protocol: Notes: % expressed with reference to material stored at −70° C.
% RH means percentage relative humidity.

[2] = Behaviour of the solid in the presence of water; assay type: physicochemical; conditions: in the presence of water / suspended in distilled water, stirred 24 hours
Protocol: Stability in the presence of water is desirable in a product intended to be formulated in a pharmaceutical composition using a process that brings it into contact with water, such as a wet granulation process used in the preparation of a tablet.
1.5 g of Form 1 of 1-(indole-6-carbonyl-D-phenylglycinyl)-4-(1-methylpiperidin-4-yl)piperazine difumarate was suspended in 10 ml of distilled water and stirred for 24 hours. The suspension thickened after 5-6 hours, but stirring was continued for the remaining time. The suspension was centrifuged to isolate the solid. The solid was washed with cyclohexane and dried at ambient temperature under vacuum.

Factor Xa = Factor Xa (Homo sapiens, UniProt P00742); assay: Factor Xa inhibition; assay type: biochemical
Chain of Factor Xa (P00742 235-488 limits assumed): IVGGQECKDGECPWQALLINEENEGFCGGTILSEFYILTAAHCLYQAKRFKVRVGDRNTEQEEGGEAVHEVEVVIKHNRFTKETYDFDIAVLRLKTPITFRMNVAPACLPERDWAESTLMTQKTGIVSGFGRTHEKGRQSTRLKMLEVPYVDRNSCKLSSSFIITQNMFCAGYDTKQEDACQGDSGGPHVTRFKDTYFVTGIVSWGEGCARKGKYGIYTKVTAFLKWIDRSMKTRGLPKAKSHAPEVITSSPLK
Chain of Factor Xa (P00742 41-179 partner limits assumed): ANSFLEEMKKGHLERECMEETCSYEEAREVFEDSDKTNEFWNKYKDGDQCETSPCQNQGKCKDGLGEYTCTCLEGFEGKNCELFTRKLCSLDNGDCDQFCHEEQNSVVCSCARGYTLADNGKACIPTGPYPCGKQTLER

Oral exposure = assay type: in vivo
[3] = Vapor pressure isotherm determination / hygroscopicity; assay type: physicochemical
From the text: The mono hydrochloride salt of 1-(indole-6-carbonyl-D-phenylglycinyl)-4-(1-methylpiperidin-4-yl)piperazine has also been prepared. The monohydrochloride salt was initially obtained as an amorphous solid. This solid was cycled through a vapor pressure isotherm determination, in which the solid initially deliquesced, then dehydrated.
Using a microbalance flow system, the original material was cycled through a vapor pressure isotherm determination, where the material deliquesced, then allowed to deydrate.

[4] = 40° C./75% RH, 7 Days, difumarate
[5] = 40° C./75% RH, 28 Days, difumarate

| SMILES | Stability study, % expressed with reference to material stored at −70° C. [1, 4] [%] | Stability study, % expressed with reference to material stored at −70° C. [1, 5] [%] | Stability study, % expressed with reference to material stored at −70° C. ([1]; 70° C., 7 Days, difumarate) [%] | Stability study, % expressed with reference to material stored at −70° C. ([1]; 70° C., 28 Days, difumarate) [%] | Morphological stability [1] | Stability of the crystalline form in the presence of water [2] | other results |
| --- | --- | --- | --- | --- | --- | --- | --- |
| CN1CCC(N2CCN(C(=O)[C@H](NC(=O)c3ccc4cc[nH]c4c3)c3ccccc3)CC2)CC1 [chloroform solvate, 1-(indole-6-carbonyl-D-phenylglycinyl)-4-(1-methylpiperidin-4-yl)piperazine] |  |  |  |  |  | tended to convert into a gel |  |
| CN1CCC(N2CCN(C(=O)[C@H](NC(=O)c3ccc4cc[nH]c4c3)c3ccccc3)CC2)CC1 [1-(indole-6-carbonyl-D-phenylglycinyl)-4-(1-methylpiperidin-4-yl)piperazine] |  |  |  |  |  |  | Inhibition of Factor Xa (Factor Xa): potent and selective inhibitor; Oral exposure (Oral exposure): good |
| CN1CCC(N2CCN(C(=O)[C@H](NC(=O)c3ccc4cc[nH]c4c3)c3ccccc3)CC2)CC1.Cl [compound 1, 1-(indole-6-carbonyl-D-phenylglycinyl)-4-(1-methylpiperidin-4-yl)piperazine hydrochloride] |  |  |  |  |  |  | Hygroscopicity ([3]; amorphous and crystalline material): hygroscopic; Behaviour of the solid in vapor pressure isotherm determination ([3]; amorphous solid, microbalance flow system): deliquesced |

The next lines start with results.

| Stability study, % expressed with reference to material stored at −70° C. [1, 4] [%] | Stability study, % expressed with reference to material stored at −70° C. [1, 5] [%] | Stability study, % expressed with reference to material stored at −70° C. ([1]; 70° C., 7 Days, difumarate) [%] | Stability study, % expressed with reference to material stored at −70° C. ([1]; 70° C., 28 Days, difumarate) [%] | Morphological stability [1] | Stability of the crystalline form in the presence of water [2] | SMILES | other results |
| --- | --- | --- | --- | --- | --- | --- | --- |
| 99.3 | 99.6 | 99.1 | 99.0 | morphologically stable |  | CN1CCC(N2CCN(C(=O)[C@H](NC(=O)c3ccc4cc[nH]c4c3)c3ccccc3)CC2)CC1.O=C(O)/C=C/C(=O)O.O=C(O)/C=C/C(=O)O [Form 2, 1-(indole-6-carbonyl-D-phenylglycinyl)-4-(1-methylpiperidin-4-yl)piperazine difumarate] |  |
| 99.6 | 99.5 | 99.0 | 100.2 | morphologically stable | converted into Form 2 | CN1CCC(N2CCN(C(=O)[C@H](NC(=O)c3ccc4cc[nH]c4c3)c3ccccc3)CC2)CC1.O=C(O)/C=C/C(=O)O.O=C(O)/C=C/C(=O)O [Form 1, 1-(indole-6-carbonyl-D-phenylglycinyl)-4-(1-methylpiperidin-4-yl)piperazine difumarate] | Stability study, % expressed with reference to material stored at −70° C. ([1]; 40° C., 7 Days): 100.5%; Stability study, % expressed with reference to material stored at −70° C. ([1]; 40° C., 28 Days): 99.8%; Stability study, % expressed with reference to material stored at −70° C. ([1]; 50° C., 7 Days): 99.3%; Stability study, % expressed with reference to material stored at −70° C. ([1]; 50° C., 28 Days): 99.4%; Stability study, % expressed with reference to material stored at −70° C. ([1]; Light, 7 Days): 99.7%; Stability study, % expressed with reference to material stored at −70° C. ([1]; Light, 28 Days): 98.9% |
